Biological target: T1, Pol 957 EA (Thermococcus sp., UniProt Q56366)
T1 sequence (Q56366 1-775): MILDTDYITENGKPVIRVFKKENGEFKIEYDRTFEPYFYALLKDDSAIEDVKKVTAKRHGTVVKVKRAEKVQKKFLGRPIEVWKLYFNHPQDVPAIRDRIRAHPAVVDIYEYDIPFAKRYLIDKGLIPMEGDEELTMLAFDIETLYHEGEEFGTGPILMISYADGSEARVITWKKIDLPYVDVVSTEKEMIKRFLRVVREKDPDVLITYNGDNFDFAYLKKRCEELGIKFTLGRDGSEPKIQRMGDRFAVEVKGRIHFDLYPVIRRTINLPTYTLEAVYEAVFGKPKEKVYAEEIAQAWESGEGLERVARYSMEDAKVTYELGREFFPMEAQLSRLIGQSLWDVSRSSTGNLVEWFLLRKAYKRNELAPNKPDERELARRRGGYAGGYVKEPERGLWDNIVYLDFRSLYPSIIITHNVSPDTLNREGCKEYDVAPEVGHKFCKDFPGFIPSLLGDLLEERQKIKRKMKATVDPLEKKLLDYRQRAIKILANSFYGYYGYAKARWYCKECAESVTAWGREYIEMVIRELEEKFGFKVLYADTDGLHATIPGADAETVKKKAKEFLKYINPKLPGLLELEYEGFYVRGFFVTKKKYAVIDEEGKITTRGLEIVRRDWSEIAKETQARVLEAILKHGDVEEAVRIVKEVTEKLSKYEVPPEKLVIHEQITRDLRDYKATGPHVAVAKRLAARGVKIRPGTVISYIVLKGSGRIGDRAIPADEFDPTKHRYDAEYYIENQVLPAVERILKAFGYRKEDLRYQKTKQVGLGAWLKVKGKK
Assay: Binding affinity of labelled 3'-azidomethylthymidine triphosphates to the polymerase (Table 2)

`Cc1cn([C@H]2C[C@H](OCN=[N+]=[N-])[C@@H](COP(=O)(O)OP(=O)(O)OP(=O)(O)O)O2)c(=O)[nH]c1=O` [Dark ffT] showed a Kd of 550 nM.

Reference: patent EP2964612B1, “P[…] AND THEIR USE AS FLUORESCENT LABELS” (Illumina Cambridge Limited, priority 2013, dated 2014)
